Here are results for two compounds from patent US9346829B2, “5-HT3 receptor antagonists” (Takeda Phamaceutical Company Limited, priority 2012, dated 2016).

pIC50: −log10 of the molar value. Where a name gives a salt, the structure may show the parent alone. Read-outs that look alike come from different tables or passages of the source.

One test concerns the target 5-HT3a receptor (Homo sapiens (Human), UniProt P46098). Kind of test: Inhibition of Ca flux activity of 5-HT3 in vitro assay. The class given is cell-based. On the procedure:
The 5-HT3 antagonist activity of the compounds of the invention was determined by measuring the ability of the compounds to inhibit the calcium flux activity of […] receptor expressed in HEK-293T cells. HEK-293T cells were transfected with the 5-HT3a expression construct using Xtreme Gene 9 (Roche) in 150 mm tissue culture treated plates and incubated for 24 hours at 37° C. Cells were then split and plated at a density of 60K cells/well in poly-lysine coated, black 96-well plates with clear bottoms (BD BioSciences) and incubated overnight at 37° C. Growth media was removed and cells loaded with 200 uL calcium indicator dye in HBSS containing 20 mM HEPES (Calcium 5 Assay kit, Molecular Devices) and incubated at 37° C. for 1 hour. While cells were incubating, the 10× antagonist and agonist/antagonist addition plates were made. For 10× antagonist plate: half log serial dilutions (final concentrations range from 10^−7 through 10^−10 with the bottom well a negative, no ligand control) were made from test compounds in DMSO at a 1000× concentration and then diluted to 10× in HBSS/20 mM HEPES. For addition plate: 5HT was diluted to 100× in HBSS/20 mM HEPES (final concentration in the assay—216 nM) and 15 uL was added to each well of the addition plate, 15 uL of 10× compound was also added to the addition plate, and finally 120 uL of HBSS/20 mM HEPES (for a total of 150 uL). Cells were then removed from the incubator and equilibrated to room temperature for 10 minutes, then 22.5 uL of 10× test compounds were added in triplicate to the plates and incubated at room temperature for 10 minutes (Tropisetron was used as a positive control in every assay). Test plate and addition plate were loaded into the FlexStation III (Molecular Devices), and using the fluidics, 22.5 uL compound additions were made (at t=˜17 seconds), and fluorescence was measured for 90 seconds, reading every 2.2 seconds. Data sets were analyzed as max minus min using Software Max Pro (Molecular Devices). IC50 curves were generated using non-linear regression in GraphPad Prism.

The next test addresses nicotinic α-7 receptor (Homo sapiens (Human), UniProt P36544). The test can be described thus: Nicotinic α-7 receptor binding assay. The following applies: binding at the nicotinic α-7 receptor, carried out at Eurofins Pharma Services. As to the method:
The evaluation of binding at the nicotinic α-7 receptor was carried out at Eurofins Pharma Services.

Sequence of 5-HT3a receptor (P46098 24-478): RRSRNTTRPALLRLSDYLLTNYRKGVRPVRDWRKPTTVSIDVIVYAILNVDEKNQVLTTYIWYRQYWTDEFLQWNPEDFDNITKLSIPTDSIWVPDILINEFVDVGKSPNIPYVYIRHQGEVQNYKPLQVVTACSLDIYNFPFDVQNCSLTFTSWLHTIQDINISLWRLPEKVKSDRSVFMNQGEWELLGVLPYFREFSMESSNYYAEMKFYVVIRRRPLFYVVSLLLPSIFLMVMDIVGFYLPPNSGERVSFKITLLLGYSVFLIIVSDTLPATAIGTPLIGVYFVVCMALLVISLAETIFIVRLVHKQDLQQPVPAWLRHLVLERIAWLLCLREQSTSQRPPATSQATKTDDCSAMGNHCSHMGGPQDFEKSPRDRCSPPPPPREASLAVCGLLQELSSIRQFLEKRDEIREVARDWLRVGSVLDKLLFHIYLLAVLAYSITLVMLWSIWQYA
Sequence of nicotinic α-7 receptor (P36544 23-502): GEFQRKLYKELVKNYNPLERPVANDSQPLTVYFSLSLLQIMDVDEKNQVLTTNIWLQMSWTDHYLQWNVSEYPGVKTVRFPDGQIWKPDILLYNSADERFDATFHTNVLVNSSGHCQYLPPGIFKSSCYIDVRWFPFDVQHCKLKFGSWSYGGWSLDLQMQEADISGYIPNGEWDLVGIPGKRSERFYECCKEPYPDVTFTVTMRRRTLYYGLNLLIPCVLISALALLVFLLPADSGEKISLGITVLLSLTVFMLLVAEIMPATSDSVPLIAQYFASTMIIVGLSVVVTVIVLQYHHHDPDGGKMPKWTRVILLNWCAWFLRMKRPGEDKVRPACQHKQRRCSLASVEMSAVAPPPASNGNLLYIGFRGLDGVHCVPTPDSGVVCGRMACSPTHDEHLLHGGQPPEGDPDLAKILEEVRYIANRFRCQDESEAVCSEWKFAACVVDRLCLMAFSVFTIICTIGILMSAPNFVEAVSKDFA

Usually pIC50 stands for −log10 of the IC50, conventionally taken in molar units. Consider `CN1[C@@H]2COC[C@H]1C[C@@H](NC(=O)c1cn(-c3cnn(C)c3)c3ccccc13)C2` [Compound 15, 1-(1-methyl-1H-pyrazol-4-yl)-N-((1R,5S,7S)-9-methyl-3-oxa-9-azabicyclo[3.3.1]nonan-7-yl)-1H-indole-3-carboxamide, 2,2,2-trifluoroacetic acid salt], for which the pIC50 against 5-HT3a receptor was 8.46; at 5-HT3a receptor (approximate IC50, calcium flux, 5-HT3a expressed in HEK-293T cells, 5HT 216 nM, read-out: IC50), 9.18; on nicotinic α-7 receptor, under 5.00.

Turning to `CN1C2COCC1CC(OC(=O)c1c[nH]c3ccccc13)C2` [Reference 7, (1R,5S,7S)-9-methyl-3-oxa-9-azabicyclo[3.3.1]nonan-7-yl 1H-indole-3-carboxylate, reference compound], the negative-log IC50 (pIC50) against 5-HT3a receptor is 7.05; at nicotinic α-7 receptor, 5.78.
